Measurements as given in US20150344540A1, “NOVEL GLP-1 RECEPTOR AGONISTS WITH CHOLESTEROL EFFLUX ACTIVITY” (NOVO NORDISK A/S, priority 2012, published 2015).
Like-named read-outs stand apart in the source and are kept apart here. Where a SMILES comes first, the peptide text is derived from it. [ ]: non-standard residue; d: D form. Aib = CC(C)(N)C(=O)O

Legend:
[1] = tested on: Mouse monocyte/macrophage cell line, RAW 264.7; assay: Cholesterol efflux assay (3H-cholesterol, macrophage cell line); format: cell-based; conditions: RAW 264.7, 4 hrs incubation, 0.1% human serum albumin, ABCA1-mediated efflux
[2] = target: human GLP-1 receptor (Homo sapiens, UniProt P43220); assay: Functional GLP-1 receptor assay, in vitro potency (CRE luciferase; whole cells); format: cell-based; conditions: BHK cells expressing human GLP-1 receptor
Chain of human GLP-1 receptor (P43220 24-463): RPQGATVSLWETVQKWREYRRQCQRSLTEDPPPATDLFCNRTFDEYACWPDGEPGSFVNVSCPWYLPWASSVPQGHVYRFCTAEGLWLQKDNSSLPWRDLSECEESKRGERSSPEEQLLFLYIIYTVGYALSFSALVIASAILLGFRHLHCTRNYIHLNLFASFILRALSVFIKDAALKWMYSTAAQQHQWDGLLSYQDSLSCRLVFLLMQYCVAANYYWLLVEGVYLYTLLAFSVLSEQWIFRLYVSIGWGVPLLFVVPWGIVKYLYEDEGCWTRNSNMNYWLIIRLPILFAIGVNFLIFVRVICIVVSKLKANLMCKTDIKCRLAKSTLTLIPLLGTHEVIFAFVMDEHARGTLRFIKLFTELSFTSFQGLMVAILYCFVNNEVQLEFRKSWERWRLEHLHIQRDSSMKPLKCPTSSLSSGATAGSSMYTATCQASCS

[3] = Pharmacokinetics in mini-pigs after i.v. administration; conditions: female, Göttingen, minipig, plasma, iv, 5 nmol/kg
Description: The aim of the study is to assess the pharmacokinetic properties of the compounds of the invention, in mini-pigs.
Göttingen mini-pigs female, 15-20 kg, purchased from Ellegaard Mini-pigs, Denmark, were housed in the Animal Unit, Novo Nordisk A/S and were kept and handled according to normal procedure in the Animal Unit. After minimum 2 weeks of acclimatization two permanent central venous catheters were implemented in vena cava caudalis in each animal. After surgery the animals were in their normal individual pens during the pharmacokinetic experiments.
Intravenous injections were given through the central short catheter, which was flushed with min 10 ml of sterile saline post administration. The test substance was dosed at 5 nmol/kg, N=3, in a volume of 0.05 ml/kg.
On day 1 the catheters are coupled to extension tubes, which will be removed at the end of day 1.
Samples were kept on wet ice until centrifugation (10 min, 4° C., 1942 g). Afterwards, plasma (min. 100 μl) was transferred immediately to Micronic tubes and kept at −20° C. until analysis. The plasma samples were analysed by an immunoaasay described below.
The plasma concentrations of the peptides with intact N-terminus were determined using a Luminescence Oxygen Chanelling Immuno-assay (LOCI). The donor beads were coated with streptavidin, while acceptor beads were conjugated with a monoclonal antibody recognizing a mid-/C-terminal epitope of the peptide. The other monoclonal antibody, specific for the N-terminus, was biotinylated. The three reactants were combined with the analyte and formed a two-sited immuno-complex. Illumination of the complex released singlet oxygen atoms from the donor beads, which were channeled into the acceptor beads and triggered chemi-luminescence which was measured in an Envision plate reader. The amount of light was proportional to the concentration of the compound.
Plasma concentration-time profiles was analysed by a non-compartmental pharmacokinetics analysis using Phoenix (Pharsight Inc., Mountain View, Calif., USA). Calculations were performed using individual concentration-time values from each animal.

[4] = 0% HSA, read-out: GLP1R CRE luc 0% HSA EC50 Mean Value
[5] = GLP1R CRE luc 1% HSA EC50 Mean Value, 1% HSA
[6] = T1/2 Mean Value, Göttingen mini-pigs, N=3

Row | Structure (SMILES) | 4 h Cholesterol Efflux Emax [1] | EC50 [2, 4] | EC50 [2, 5] | C0 [3] | Vd [3] | clearance [3] | half-life [3, 6] | half-life ([3]; T1/2, mini-pigs)
1 | CC[C@H](C)[C@H](NC(=O)[C@H](Cc1ccccc1)NC(=O)[C@H](CCC(=O)O)NC(=O)[C@H](CCCCN)NC(=O)[C@@H](NC(=O)[C@H](C)NC(=O)[C@H](CCC(=O)O)NC(=O)CNC(=O)[C@H](CCC(=O)O)NC(=O)[C@H](CC(C)C)NC(=O)[C@H](Cc1ccc(O)cc1)NC(=O)[C@H](CO)NC(=O)[C@H](CO)NC(=O)[C@@H](NC(=O)[C@H](CC(=O)O)NC(=O)[C@H](CO)NC(=O)[C@@H](NC(=O)[C@H](Cc1ccccc1)NC(=O)[C@@H](NC(=O)CNC(=O)[C@H](CCC(=O)O)NC(=O)C(C)(C)NC(=O)[C@@H](N)Cc1c[nH]cn1)[C@@H](C)O)[C@@H](C)O)C(C)C)C(C)C)C(=O)N[C@@H](C)C(=O)N[C@@H](Cc1c[nH]c2ccccc12)C(=O)N[C@@H](CC(C)C)C(=O)N[C@H](C(=O)N[C@@H](CCC(=O)O)C(=O)N[C@@H](CCCCN)C(=O)NC(C)(C)C(=O)N[C@@H](CCCCN)C(=O)N[C@@H](CCC(=O)O)C(=O)N[C@@H](Cc1ccccc1)C(N)=O)C(C)C [Compound 62, [Aib8,Glu23,Val25,Glu34,Lys35,Aib36,Lys37]-GLP-1-(7-37)-peptidyl-Glu-Phe amide] (H-H[Aib]EGTFTSDVSSYLEGEAVKEFIAWLVEK[Aib]KEF-NH2) | 111% | 0.022 nM | 0.015 nM | 50.6 nM | 0.0654 L/kg | 2.66 mL/h/kg | 16.7 h | –
2 | CC[C@H](C)[C@H](NC(=O)[C@H](Cc1ccccc1)NC(=O)[C@H](CCC(=O)O)NC(=O)[C@H](CCCCN)NC(=O)[C@H](C)NC(=O)[C@H](C)NC(=O)[C@H](CCC(N)=O)NC(=O)CNC(=O)[C@H](CCC(=O)O)NC(=O)[C@H](CC(C)C)NC(=O)[C@H](Cc1ccc(O)cc1)NC(=O)[C@H](CO)NC(=O)[C@H](CO)NC(=O)[C@@H](NC(=O)[C@H](CC(=O)O)NC(=O)[C@H](CO)NC(=O)[C@@H](NC(=O)[C@H](Cc1ccccc1)NC(=O)[C@@H](NC(=O)CNC(=O)[C@H](CCC(=O)O)NC(=O)C(C)(C)NC(=O)[C@@H](N)Cc1c[nH]cn1)[C@@H](C)O)[C@@H](C)O)C(C)C)C(=O)N[C@@H](C)C(=O)N[C@@H](Cc1c[nH]c2ccccc12)C(=O)N[C@@H](CC(C)C)C(=O)N[C@H](C(=O)N[C@@H](CCCCN)C(=O)N[C@@H](CCCCN)C(=O)NC(C)(C)C(=O)NCC(=O)N[C@@H](CCC(=O)O)C(=O)N[C@@H](Cc1ccccc1)C(=O)N[C@@H](CC(C)C)C(N)=O)C(C)C [Compound 48] | 71% | 0.045 nM | 0.015 nM | 85.5 nM | 0.0743 L/kg | 6.3 mL/h/kg | 8.3 h | –
3 | CC[C@H](C)[C@H](NC(=O)[C@H](Cc1ccccc1)NC(=O)[C@H](CCC(=O)O)NC(=O)[C@H](CCCCN)NC(=O)[C@@H](NC(=O)[C@H](C)NC(=O)[C@H](CCC(=O)O)NC(=O)CNC(=O)[C@H](CCC(=O)O)NC(=O)[C@H](CC(C)C)NC(=O)[C@H](Cc1ccc(O)cc1)NC(=O)[C@H](CO)NC(=O)[C@H](CO)NC(=O)[C@@H](NC(=O)[C@H](CC(=O)O)NC(=O)[C@H](CO)NC(=O)[C@@H](NC(=O)[C@H](Cc1ccccc1)NC(=O)[C@@H](NC(=O)CNC(=O)[C@H](CCC(=O)O)NC(=O)C(C)(C)NC(=O)[C@@H](N)Cc1c[nH]cn1)[C@@H](C)O)[C@@H](C)O)C(C)C)C(C)C)C(=O)N[C@@H](C)C(=O)N[C@@H](Cc1c[nH]c2ccccc12)C(=O)N[C@@H](CC(C)C)C(=O)N[C@H](C(=O)N[C@@H](CCC(=O)O)C(=O)N[C@@H](CCCCN)C(=O)NC(C)(C)C(=O)N[C@@H](CCCCN)C(N)=O)C(C)C [Compound 11, [Aib8,Glu23,Val25,Glu34,Lys35,Aib36,Lys37]-GLP-1-(7-37)-peptide amide] (H-H[Aib]EGTFTSDVSSYLEGEAVKEFIAWLVEK[Aib]K-NH2) | 135% | 0.015 nM | 0.004 nM | 115 nM | 0.0613 L/kg | 54.9 mL/h/kg | 0.8 h | –
4 | CC[C@H](C)[C@H](NC(=O)[C@H](Cc1ccccc1)NC(=O)[C@H](CCC(=O)O)NC(=O)[C@H](CCCCN)NC(=O)[C@@H](NC(=O)[C@H](C)NC(=O)[C@H](CCC(=O)O)NC(=O)CNC(=O)[C@H](CCC(=O)O)NC(=O)[C@H](CC(C)C)NC(=O)[C@H](Cc1ccc(O)cc1)NC(=O)[C@H](CO)NC(=O)[C@H](CO)NC(=O)[C@@H](NC(=O)[C@H](CC(=O)O)NC(=O)[C@H](CO)NC(=O)[C@@H](NC(=O)[C@H](Cc1ccccc1)NC(=O)[C@@H](NC(=O)CNC(=O)[C@H](CCC(=O)O)NC(=O)C(C)(C)NC(=O)[C@@H](N)Cc1c[nH]cn1)[C@@H](C)O)[C@@H](C)O)C(C)C)C(C)C)C(=O)N[C@@H](C)C(=O)N[C@@H](Cc1c[nH]c2ccccc12)C(=O)N[C@@H](CC(C)C)C(=O)N[C@H](C(=O)N[C@@H](CCC(=O)O)C(=O)N[C@@H](CCCCN)C(=O)NC(C)(C)C(=O)NCC(=O)N[C@@H](CCC(=O)O)C(=O)N[C@@H](Cc1ccccc1)C(=O)N[C@@H](CC(C)C)C(N)=O)C(C)C [Compound 32] (H-H[Aib]EGTFTSDVSSYLEGEAVKEFIAWLVEK[Aib]GEFL-NH2) | 85% | 0.039 nM | 0.013 nM | 108 nM | 0.0769 L/kg | 1.04 mL/h/kg | 51.3 h | –
5 | CC[C@H](C)[C@H](NC(=O)[C@H](Cc1ccccc1)NC(=O)[C@H](CCC(=O)O)NC(=O)[C@H](CCCCN)NC(=O)[C@H](C)NC(=O)[C@H](C)NC(=O)[C@H](CCC(=O)O)NC(=O)CNC(=O)[C@H](CCC(=O)O)NC(=O)[C@H](CC(C)C)NC(=O)[C@H](Cc1ccc(O)cc1)NC(=O)[C@H](CO)NC(=O)[C@H](CO)NC(=O)[C@@H](NC(=O)[C@H](CC(=O)O)NC(=O)[C@H](CO)NC(=O)[C@@H](NC(=O)[C@H](Cc1ccccc1)NC(=O)[C@@H](NC(=O)CNC(=O)[C@H](CCC(=O)O)NC(=O)C(C)(C)NC(=O)[C@@H](N)Cc1c[nH]cn1)[C@@H](C)O)[C@@H](C)O)C(C)C)C(=O)N[C@@H](C)C(=O)N[C@@H](Cc1c[nH]c2ccccc12)C(=O)N[C@@H](CC(C)C)C(=O)N[C@H](C(=O)N[C@@H](CCC(=O)O)C(=O)N[C@@H](CCCCN)C(=O)NC(C)(C)C(=O)N[C@@H](CCCCN)C(=O)N[C@@H](CCC(=O)O)C(=O)N[C@@H](Cc1ccccc1)C(=O)N[C@@H](CC(C)C)C(N)=O)C(C)C [Compound 8, [Aib8,Glu23,Glu34,Lys35,Aib36,Lys37]-GLP-1-(7-37)-peptidyl-Glu-Phe-Leu amide] (H-H[Aib]EGTFTSDVSSYLEGEAAKEFIAWLVEK[Aib]KEFL-NH2) | 100% | 0.163 nM | – | 79.7 nM | 0.152 L/kg | 3.09 mL/h/kg | 32.9 h | 32.8 h
6 | CC[C@H](C)[C@H](NC(=O)[C@H](Cc1ccccc1)NC(=O)[C@H](CCC(=O)O)NC(=O)[C@H](CCCCN)NC(=O)[C@@H](NC(=O)[C@H](CCCCN)NC(=O)[C@H](CCC(=O)O)NC(=O)CNC(=O)[C@H](CCC(=O)O)NC(=O)[C@H](CC(C)C)NC(=O)[C@H](Cc1ccc(O)cc1)NC(=O)[C@H](CO)NC(=O)[C@H](CO)NC(=O)[C@@H](NC(=O)[C@H](CC(=O)O)NC(=O)[C@H](CO)NC(=O)[C@@H](NC(=O)[C@H](Cc1ccccc1)NC(=O)[C@@H](NC(=O)CNC(=O)[C@H](CCC(=O)O)NC(=O)C(C)(C)NC(=O)[C@@H](N)Cc1c[nH]cn1)[C@@H](C)O)[C@@H](C)O)C(C)C)C(C)C)C(=O)N[C@@H](C)C(=O)N[C@@H](Cc1c[nH]c2ccccc12)C(=O)N[C@@H](CC(C)C)C(=O)N[C@H](C(=O)N[C@@H](CCC(=O)O)C(=O)NCC(=O)NC(C)(C)C(=O)N[C@@H](CCCCN)C(=O)N[C@@H](CCC(=O)O)C(=O)N[C@@H](Cc1ccccc1)C(=O)N[C@@H](CC(C)C)C(N)=O)C(C)C [Compound 64, [Aib8,Glu23,Lys24,Val25,Glu34,Aib36,Lys37]-GLP-1-(7-37)-peptidyl-Glu-Phe-Leu amide] (H-H[Aib]EGTFTSDVSSYLEGEKVKEFIAWLVEG[Aib]KEFL-NH2) | 100% | – | 0.111 nM | 86.9 nM | 0.0879 L/kg | 2.41 mL/h/kg | 25.2 h | –
